Test results taken from ChEMBL document CHEMBL1138134, “Phthalazinones 2: Optimisation and synthesis of novel potent inhibitors of poly(ADP-ribose)polymerase” (Bioorg Med Chem Lett, 2006).
Converted amounts (≈) assume the structure as drawn.

Assays:
[1] = molecular target: T1, Poly [ADP-ribose] polymerase 1 (Homo sapiens, UniProt P09874); conditions: HeLa
Description: Ratio of inhibition of HeLa cell proliferation by MMS alone against MMS with PARP inhibitors

CAPAN-1 = test: Activity against BRCA2-deficient cells; format: functional, Homo sapiens
[2] = Volume of distribution in rat at 10 mg/kg, iv; format: ADME, organism-based; set-up: dose 10 mg/kg, route intravenous; conditions: in vivo, read-out: Vdss
[3] = Half life in rat at 10 mg/kg, iv; format: ADME, organism-based; set-up: dose 10 mg/kg, route intravenous; conditions: in vivo
RKO = test: Activity against wild type cells; format: functional, Homo sapiens
[4] = molecular target: T1, Poly [ADP-ribose] polymerase 1; test: Inhibitory activity against PARP1
[5] = Aqueous solubility at pH 7.4; format: physicochemical
[6] = Clearance in rat at 10 mg/kg, iv; format: ADME, organism-based; set-up: dose 10 mg/kg, route intravenous; conditions: in vivo
Mus musculus = organism: Mus musculus; test: Intrinsic clearance in mouse hepatic microsomes; format: ADME, Liver, Microsome

T1 sequence (P09874 whole entry): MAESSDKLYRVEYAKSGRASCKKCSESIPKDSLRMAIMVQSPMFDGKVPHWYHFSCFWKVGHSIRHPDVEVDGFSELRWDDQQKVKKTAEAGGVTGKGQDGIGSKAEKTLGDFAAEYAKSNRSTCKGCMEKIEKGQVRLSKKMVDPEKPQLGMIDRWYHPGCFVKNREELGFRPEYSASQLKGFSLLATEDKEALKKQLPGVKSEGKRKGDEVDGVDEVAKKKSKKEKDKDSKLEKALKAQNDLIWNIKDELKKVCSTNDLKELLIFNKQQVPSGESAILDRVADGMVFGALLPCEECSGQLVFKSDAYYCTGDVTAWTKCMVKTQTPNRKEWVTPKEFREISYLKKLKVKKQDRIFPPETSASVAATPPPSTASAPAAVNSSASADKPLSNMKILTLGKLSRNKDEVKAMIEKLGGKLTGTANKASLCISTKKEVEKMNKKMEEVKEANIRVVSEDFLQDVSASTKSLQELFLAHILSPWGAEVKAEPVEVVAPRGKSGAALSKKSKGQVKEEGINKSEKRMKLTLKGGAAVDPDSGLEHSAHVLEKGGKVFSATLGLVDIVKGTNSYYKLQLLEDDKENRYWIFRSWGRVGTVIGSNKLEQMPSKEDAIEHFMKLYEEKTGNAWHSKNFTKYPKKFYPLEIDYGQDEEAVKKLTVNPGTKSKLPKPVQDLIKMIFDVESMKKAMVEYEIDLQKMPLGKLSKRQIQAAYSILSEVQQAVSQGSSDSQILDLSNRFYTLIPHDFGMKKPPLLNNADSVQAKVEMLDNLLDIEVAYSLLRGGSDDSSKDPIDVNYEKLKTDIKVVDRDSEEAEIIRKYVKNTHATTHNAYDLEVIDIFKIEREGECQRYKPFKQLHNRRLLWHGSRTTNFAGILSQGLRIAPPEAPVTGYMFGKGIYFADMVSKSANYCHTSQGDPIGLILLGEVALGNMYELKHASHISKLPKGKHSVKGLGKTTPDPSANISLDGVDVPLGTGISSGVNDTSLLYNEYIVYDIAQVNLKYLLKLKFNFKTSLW

SMILES | PF50 [1] | IC50 [4] [nM] | further results
COc1cc2c(cc1OC)CN(C(=O)C1CCN(C(=O)c3cccc(Cc4nnc(O)c5ccccc45)c3)CC1)CC2 | 4.1 | – | –
O=C(c1cc(Cc2n[nH]c(=O)c3ccccc23)ccc1F)N1CCCNCC1 | 12.6 | 7 | SF50 (CAPAN-1): 15 nM; Vd [2]: 2.1 L/kg; half-life [3]: 1 h; SF50 (RKO): 2 µM; solubility [5]: 5100 µg/mL (≈ 13.4 mM); clearance [6]: 54 mL/min/kg
CN1CCCN(C(=O)c2cccc(Cc3nnc(O)c4ccccc34)c2)CC1 | 1.8 | 23 | –
CCC(=O)Nc1cccc(Cc2n[nH]c(=O)c3ccccc23)c1 | 2.3 | – | CL (Mus musculus): 12 mL/min/g
O=C(c1cccc(Cc2nnc(O)c3ccccc23)c1)N1CCCN(S(=O)(=O)c2cccc(C(F)(F)F)c2)CC1 | 2.1 | – | –
O=C(c1cccc(Cc2nnc(O)c3ccccc23)c1)N1CCCN(S(=O)(=O)c2ccc(-c3ccccc3)cc2)CC1 | 3.2 | – | –
CC1CCN(C(=O)C2CCN(C(=O)c3cccc(Cc4n[nH]c(=O)c5ccccc45)c3)CC2)CC1 | – | 8 | –
CCCN1CCCN(C(=O)c2cccc(Cc3nnc(O)c4ccccc34)c2)CC1 | 2.5 | – | –
CC(C)CNC(=O)C1CCN(C(=O)c2cccc(Cc3nnc(O)c4ccccc34)c2)CC1 | 2 | 16 | –
CC1CCN(C(=O)C2CCN(C(=O)c3cccc(Cc4nnc(O)c5ccccc45)c3)CC2)CC1 | 4.4 | – | –
CCCN1CCCN(C(=O)c2cccc(Cc3n[nH]c(=O)c4ccccc34)c2)CC1 | – | 10 | –
COc1cc(C(=O)N2CCCN(C(=O)c3cccc(Cc4nnc(O)c5ccccc45)c3)CC2)cc(Cl)n1 | 2.5 | – | –
O=C(c1cc(Cc2nnc(O)c3ccccc23)ccc1F)N1CCCN(CC2CC2)CC1 | 6.7 | – | –
O=C(c1cccc(Cc2nnc(O)c3ccccc23)c1)N1CCc2ccccc2C1 | 3.4 | 8 | –
COc1cc(C(=O)N2CCCN(C(=O)c3cccc(Cc4n[nH]c(=O)c5ccccc45)c3)CC2)cc(Cl)n1 | – | 9 | –
CCC(C)CN(C)C(=O)C1CCN(C(=O)c2cccc(Cc3n[nH]c(=O)c4ccccc34)c2)CC1 (stereo unspecified) | – | 9 | –
O=C(c1cccc(Cc2nnc(O)c3ccccc23)c1)N1CCCN(CC2CC2)CC1 | 3.1 | – | –
Cc1noc(C)c1S(=O)(=O)N1CCCN(C(=O)c2cccc(Cc3n[nH]c(=O)c4ccccc34)c2)CC1 | – | 12 | –
O=C(c1cccc(Cc2n[nH]c(=O)c3ccccc23)c1)N1CCCNCC1 | – | 9 | –
CCN1CCCN(C(=O)c2cc(Cc3nnc(O)c4ccccc34)ccc2F)CC1 | 6.7 | – | –
Cc1noc(C)c1S(=O)(=O)N1CCCN(C(=O)c2cccc(Cc3nnc(O)c4ccccc34)c2)CC1 | 2.1 | – | –
CN1CCCN(C(=O)c2cc(Cc3nnc(O)c4ccccc34)ccc2F)CC1 | 5.5 | 9 | –

SMILES | PF50 [1] | IC50 [4] [nM] | further results
CCCN1CCCN(C(=O)c2cc(Cc3nnc(O)c4ccccc34)ccc2F)CC1 | 7 | 5 | –
CCN1CCCN(C(=O)c2cccc(Cc3nnc(O)c4ccccc34)c2)CC1 | 2.6 | 15 | –
CCNC(=O)c1cccc(Cc2n[nH]c(=O)c3ccccc23)c1 | 2.1 | – | CL (Mus musculus): < 1 mL/min/g
COc1cccc(CCC(=O)N2CCCN(C(=O)c3cccc(Cc4nnc(O)c5ccccc45)c3)CC2)c1 | 2.5 | 8 | –
CCOC(=O)C1CCN(C(=O)c2cccc(Cc3nnc(O)c4ccccc34)c2)CC1 | 2.1 | – | –
O=C(c1cc(Cc2nnc(O)c3ccccc23)ccc1F)N1CCCN(C2CCCCC2)CC1 | 6.3 | – | –
COc1cc2c(cc1OC)CN(C(=O)C1CCN(C(=O)c3cccc(Cc4n[nH]c(=O)c5ccccc45)c3)CC1)CC2 | – | 16 | –
O=C(c1cccc(Cc2n[nH]c(=O)c3ccccc23)c1)N1CCCN(CC2CC2)CC1 | – | 14 | –
O=C(c1cccc(Cc2nnc(O)c3ccccc23)c1)N1CCC(C(=O)N2CCCCC2)CC1 | 3.9 | 15 | –
O=C(NC1CCCC1)C1CCN(C(=O)c2cccc(Cc3nnc(O)c4ccccc34)c2)CC1 | 2.5 | 15 | –
O=C(c1cccc(Cc2nnc(O)c3ccccc23)c1)N1CCCN(C2CCCCC2)CC1 | 6.6 | 6 | –
O=C(NCCc1cccs1)C1CCN(C(=O)c2cccc(Cc3nnc(O)c4ccccc34)c2)CC1 | 2.8 | 8 | –
CCC(C)CN(C)C(=O)C1CCN(C(=O)c2cccc(Cc3nnc(O)c4ccccc34)c2)CC1 (stereo unspecified) | 2.6 | – | –
O=C(c1cc(Cc2n[nH]c(=O)c3ccccc23)ccc1F)N1CCCN(CC2CC2)CC1 | – | 5 | –
O=C(c1cccc(Cc2nnc(O)c3ccccc23)c1)N1CCCNCC1 | 2.4 | – | –
O=C(c1cccc(Cc2nnc(O)c3ccccc23)c1)N1CCOCC1 | 1.2 | – | –
O=C(c1cccc(Cc2n[nH]c(=O)c3ccccc23)c1)N1CCOCC1 | – | 40 | –
CN(C)CCN(C)C(=O)c1cccc(Cc2nnc(O)c3ccccc23)c1 | 2.2 | 46 | –
COc1ccc(NC(=O)N2CCCN(C(=O)c3cccc(Cc4nnc(O)c5ccccc45)c3)CC2)cc1 | 2.2 | – | –
CN(Cc1ccccc1)C(=O)C1CCN(C(=O)c2cccc(Cc3nnc(O)c4ccccc34)c2)CC1 | 2.1 | 9 | –
CCOC(=O)C1CCN(C(=O)c2cccc(Cc3n[nH]c(=O)c4ccccc34)c2)CC1 | – | 15 | –
O=C(c1cccc(Cc2n[nH]c(=O)c3ccccc23)c1)N1CCNCC1 | 3.7 | – | –
